According to PubChem BioAssay (NCI):
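These data come from cells grown in 96-well plates and exposed to compound for 48 hours at five concentrations. Abbreviation: GI50, concentration required for 50% inhibition of growth. TGI: concentration producing complete growth inhibition.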

Tests used:
Assay in all cases: inhibition of tumour cell growth, NCI panel, 48 h; in the data active = GI50 below about 0.43 µM; inactive = the rest
A498 renal = system: A498 renal
UO-31 renal = system: UO-31 renal
MCF7 breast = system: MCF7 breast
786-0 renal = system: 786-0 renal
OVCAR-4 ovarian = system: OVCAR-4 ovarian
BT-549 breast = system: BT-549 breast
UACC-257 melanoma = system: UACC-257 melanoma
MOLT-4 leukemia = system: MOLT-4 leukemia
OVCAR-3 ovarian = system: OVCAR-3 ovarian
NCI-H522 lung = system: NCI-H522 lung
M14 melanoma = system: M14 melanoma
OVCAR-8 ovarian = system: OVCAR-8 ovarian
IGROV1 ovarian = system: IGROV1 ovarian
U251 CNS = system: U251 CNS
RPMI-8226 leukemia = system: RPMI-8226 leukemia
HCT-116 colon = system: HCT-116 colon
SNB-19 CNS = system: SNB-19 CNS
EKVX NSCLC = system: EKVX NSCLC
OVCAR-5 ovarian = system: OVCAR-5 ovarian
SK-MEL-2 melanoma = system: SK-MEL-2 melanoma
PC-3 prostate = system: PC-3 prostate
HOP-92 NSCLC = system: HOP-92 NSCLC
T-47D breast = system: T-47D breast
MALME-3M melanoma = system: MALME-3M melanoma
SF-295 CNS = system: SF-295 CNS
RXF 393 renal = system: RXF 393 renal
COLO 205 colon = system: COLO 205 colon
SNB-75 CNS = system: SNB-75 CNS
LOX IMVI melanoma = system: LOX IMVI melanoma
HS 578T breast = system: HS 578T breast
NCI-H226 lung = system: NCI-H226 lung
HOP-62 NSCLC = system: HOP-62 NSCLC
SN12C renal = system: SN12C renal
KM12 colon = system: KM12 colon
UACC-62 melanoma = system: UACC-62 melanoma
A549 NSCLC = system: A549 NSCLC
NCI/ADR-RES ovarian = system: NCI/ADR-RES ovarian
HCT-15 colon = system: HCT-15 colon
SR leukemia = system: SR leukemia
SF-268 CNS = system: SF-268 CNS
HCC-2998 colon = system: HCC-2998 colon
DU-145 prostate = system: DU-145 prostate
ACHN renal = system: ACHN renal
K-562 leukemia = system: K-562 leukemia
TK-10 renal = system: TK-10 renal
SK-MEL-5 melanoma = system: SK-MEL-5 melanoma
NCI-H23 lung = system: NCI-H23 lung
SK-MEL-28 melanoma = system: SK-MEL-28 melanoma
CCRF-CEM leukemia = system: CCRF-CEM leukemia
SK-OV-3 ovarian = system: SK-OV-3 ovarian
MDA-MB-231 breast = system: MDA-MB-231 breast
MDA-MB-435 = system: MDA-MB-435
SF-539 CNS = system: SF-539 CNS
HL-60(TB) leukemia = system: HL-60(TB) leukemia
NCI-H460 lung = system: NCI-H460 lung
SW-620 colon = system: SW-620 colon
HT29 colon = system: HT29 colon

COC(=O)C(C)NP(=O)(OCc1ccc(Cn2cnc3c(N)ncnc32)cc1)Oc1ccccc1 (centres undefined)
> 94.1 µM: TGI (UACC-62 melanoma)
53.8 µM: TGI (LOX IMVI melanoma)
57 µM: TGI (MALME-3M melanoma)
84.4 µM: TGI (HCC-2998 colon)
65.3 µM: TGI (RPMI-8226 leukemia)
> 96.1 µM: TGI (KM12 colon)
inactive: GI50 (A498 renal) > 100 µM | GI50 (UO-31 renal) > 100 µM | GI50 (MCF7 breast) 36.8 µM | GI50 (786-0 renal) > 100 µM | GI50 (OVCAR-4 ovarian) > 100 µM | GI50 (BT-549 breast) 24.2 µM | GI50 (UACC-257 melanoma) > 100 µM | GI50 (MOLT-4 leukemia) 32.2 µM | GI50 (OVCAR-3 ovarian) 34.7 µM | GI50 (NCI-H522 lung) 28.4 µM | GI50 (M14 melanoma) 55.4 µM | GI50 (OVCAR-8 ovarian) 76.8 µM | GI50 (IGROV1 ovarian) 39.1 µM | GI50 (U251 CNS) 37.3 µM | GI50 (RPMI-8226 leukemia) 17.1 µM | GI50 (HCT-116 colon) 26 µM | GI50 (SNB-19 CNS) > 64.2 µM | GI50 (EKVX NSCLC) > 81.2 µM | GI50 (OVCAR-5 ovarian) > 100 µM | GI50 (SK-MEL-2 melanoma) > 73.9 µM | GI50 (PC-3 prostate) 31.3 µM | GI50 (HOP-92 NSCLC) 29.8 µM | GI50 (T-47D breast) > 56.7 µM | GI50 (MALME-3M melanoma) 20.8 µM | GI50 (SF-295 CNS) > 78.9 µM | GI50 (RXF 393 renal) 81.5 µM | GI50 (COLO 205 colon) > 91.6 µM | GI50 (SNB-75 CNS) 40.1 µM | GI50 (LOX IMVI melanoma) 21.4 µM | GI50 (HS 578T breast) 15.5 µM | GI50 (NCI-H226 lung) > 93.5 µM | GI50 (HOP-62 NSCLC) > 68.6 µM | GI50 (SN12C renal) 73.4 µM | GI50 (KM12 colon) 25.2 µM | GI50 (UACC-62 melanoma) 28.6 µM | GI50 (A549 NSCLC) > 84.2 µM | GI50 (NCI/ADR-RES ovarian) > 100 µM | GI50 (HCT-15 colon) > 100 µM | GI50 (SR leukemia) > 100 µM | GI50 (SF-268 CNS) 36.9 µM | GI50 (HCC-2998 colon) 27.7 µM | GI50 (DU-145 prostate) > 100 µM | GI50 (ACHN renal) > 100 µM | GI50 (K-562 leukemia) > 93.1 µM | GI50 (TK-10 renal) > 100 µM | GI50 (SK-MEL-5 melanoma) 6.39 µM | GI50 (NCI-H23 lung) 36.5 µM | GI50 (SK-MEL-28 melanoma) 30.4 µM | GI50 (CCRF-CEM leukemia) 50 µM | GI50 (SK-OV-3 ovarian) > 100 µM | GI50 (MDA-MB-231 breast) > 63.4 µM | GI50 (MDA-MB-435) 43 µM | GI50 (SF-539 CNS) > 100 µM | GI50 (HL-60(TB) leukemia) 79.9 µM | GI50 (NCI-H460 lung) 67.9 µM | GI50 (SW-620 colon) > 83.5 µM | GI50 (HT29 colon) > 67.8 µM
63.4 µM: TGI (HCT-116 colon)
> 100 µM: TGI (A498 renal) | TGI (UO-31 renal) | TGI (MCF7 breast) | TGI (786-0 renal) | TGI (OVCAR-4 ovarian) | TGI (UACC-257 melanoma) | TGI (MOLT-4 leukemia) | TGI (M14 melanoma) | TGI (OVCAR-8 ovarian) | TGI (IGROV1 ovarian) | TGI (U251 CNS) | TGI (SNB-19 CNS) | TGI (EKVX NSCLC) | TGI (OVCAR-5 ovarian) | TGI (SK-MEL-2 melanoma) | TGI (PC-3 prostate) | TGI (HOP-92 NSCLC) | TGI (T-47D breast) | TGI (SF-295 CNS) | TGI (RXF 393 renal) | TGI (COLO 205 colon) | TGI (SNB-75 CNS) | TGI (NCI-H226 lung) | TGI (HOP-62 NSCLC) | TGI (SN12C renal) | TGI (A549 NSCLC) | TGI (NCI/ADR-RES ovarian) | TGI (HCT-15 colon) | TGI (SR leukemia) | TGI (SF-268 CNS) | TGI (DU-145 prostate) | TGI (ACHN renal) | TGI (K-562 leukemia) | TGI (TK-10 renal) | TGI (NCI-H23 lung) | TGI (CCRF-CEM leukemia) | TGI (SK-OV-3 ovarian) | TGI (MDA-MB-231 breast) | TGI (MDA-MB-435) | TGI (SF-539 CNS) | TGI (HL-60(TB) leukemia) | TGI (NCI-H460 lung) | TGI (SW-620 colon) | TGI (HT29 colon)
33.4 µM: TGI (SK-MEL-5 melanoma)
49.7 µM: TGI (HS 578T breast)
> 82.1 µM: TGI (OVCAR-3 ovarian)
72.5 µM: TGI (BT-549 breast)
> 84.9 µM: TGI (SK-MEL-28 melanoma)
> 69 µM: TGI (NCI-H522 lung)
